Assays:
[1] = test system: male Wistar-Han rat hepatocytes; assay: In vitro metabolism of Compound 1 in rat cryopreserved hepatocytes; type: in vitro ADME; details: HPLC/UV/MS; for metabolite of Compound 1 observed in rat hepatocyte incubations: 10 μM Compound 1, 7.5×10^5 cells/mL, 1 and 4 hrs composite sample; for Relative abundance of metabolite of Compound 1, Rat: rat cryopreserved hepatocytes; as to Relative abundance of metabolite of Compound 1, Rat: key: ND Not detected; trace: Trace: observed by HPLC/MS measurements only; + Minor as assessed by HPLC/UV measurements; ++ moderate as assessed by HPLC/UV measurements; +++ major as assessed by HPLC/UV measurements; * m/z 593 and m/z 505 co-eluted in rabbit hepatocytes; ** m/z 591c and m/z 593 were merged in human hepatocytes and Hepatopack; *** m/z 607 and m/z 751b were merged in rabbit hepatocytes
Description: (§1) Male CD-1 mouse hepatocytes (lot YHL), male Wistar-Han rat hepatocytes (Celsis; product number: M000065; lot: SLA), female New Zealand rabbit hepatocytes (lot 1510147), male cryopreserved cynomolgus monkey hepatocytes (Celsis; product number: M00305; lot: DNB) and mixed-gender cryopreserved human hepatocytes (Bioreclamation; product number: S01988; lot: DCM) were obtained for the hepatocyte in-vitro assessments.
(§2) At time 0 hrs 550 μL aliquots were removed from incubations and quenched with 5 volumes of ACN containing 0.1% formic acid. At 1 and 4 hrs, 275 μL aliquots were removed and quenched as above; these were combined in the same tube to prepare a composite sample. For all hepatocyte experiments, samples were processed by centrifugation at 1900×g for 5 minutes, and then the supernatant was transferred to clean glass tubes and evaporated to dryness under a stream of N2 using a Turbovap at 37° C. Sample residues were reconstituted in mobile phase prior to analysis by HPLC/UV/MS^n.
(§3) Samples were analyzed by HPLC/UV/MS^n using a Thermo Orbitrap Elite mass spectrometer in conjunction with a Thermo Open Accela UHPLC system. A 3.0×150 mm, 2.5 μm Acquity CSH C18 HPLC column (Waters) was heated to 45° C. for separation of analytes. The mobile phase was a gradient of A): water containing 0.1% formic acid, and B): acetonitrile. The flow rate was 450 μL/min, and the following gradient program was utilized: […]
(§4) UV absorbance was monitored with a photo-diode array detector from 220-450 nm. The mass spectrometer was operated in positive-ion mode with a HESI ion source at a potential of 3.0 kV, and capillary and source heater temperatures of 380 and 300° C., respectively. Sheath, auxiliary, and sweep gas flows were set to 45, 10, and 2 units, respectively. Full scan mass spectra were acquired over the range 120-1200 m/z at a resolving power of 30,000 (specified at m/z 400). Data-dependent MS^n spectra were acquired in an automated fashion at 15,000 resolving power using CID and HCD fragmentation with normalized collision energy settings of 28 and 65 V, respectively.
(§5) Metabolites were characterized by comparisons of mass spectral fragmentation patterns with that of a Compound 1 standard. All HPLC/UV/MS^n data were processed using Xcalibur v. 2.2, and integrated UV peak areas were subjected to weighted UV binning procedures utilizing an Excel template.

[2] = test system: female New Zealand rabbit hepatocytes; assay: In vitro metabolism of Compound 1 in rabbit cryopreserved hepatocytes; type: in vitro ADME; details: HPLC/UV/MS; for metabolite of Compound 1 observed in rabbit hepatocyte incubations: 10 μM Compound 1, 7.5×10^5 cells/mL, 1 and 4 hrs composite sample; for Relative abundance of metabolite of Compound 1, Rabbit: rabbit cryopreserved hepatocytes; as to Relative abundance of metabolite of Compound 1, Rabbit: key: ND Not detected; trace: Trace: observed by HPLC/MS measurements only; + Minor as assessed by HPLC/UV measurements; ++ moderate as assessed by HPLC/UV measurements; +++ major as assessed by HPLC/UV measurements; * m/z 593 and m/z 505 co-eluted in rabbit hepatocytes; ** m/z 591c and m/z 593 were merged in human hepatocytes and Hepatopack; *** m/z 607 and m/z 751b were merged in rabbit hepatocytes
Description: as §1, §2, §3, §4, §5

[3] = test system: male cryopreserved cynomolgus monkey hepatocytes; assay: In vitro metabolism of Compound 1 in monkey cryopreserved hepatocytes; type: in vitro ADME; details: HPLC/UV/MS; for metabolite of Compound 1 observed in monkey hepatocyte incubations: 10 μM Compound 1, 7.5×10^5 cells/mL, 1 and 4 hrs composite sample; for Relative abundance of metabolite of Compound 1, Monkey: monkey cryopreserved hepatocytes; as to Relative abundance of metabolite of Compound 1, Monkey: key: ND Not detected; trace: Trace: observed by HPLC/MS measurements only; + Minor as assessed by HPLC/UV measurements; ++ moderate as assessed by HPLC/UV measurements; +++ major as assessed by HPLC/UV measurements; * m/z 593 and m/z 505 co-eluted in rabbit hepatocytes; ** m/z 591c and m/z 593 were merged in human hepatocytes and Hepatopack; *** m/z 607 and m/z 751b were merged in rabbit hepatocytes
Description: as §1, §2, §3, §4, §5

[4] = test system: Male CD-1 mouse hepatocytes; assay: In vitro metabolism of Compound 1 in mouse cryopreserved hepatocytes; type: in vitro ADME; details: HPLC/UV/MS; for metabolite of Compound 1 observed in mouse hepatocyte incubations: 10 μM Compound 1, 7.5×10^5 cells/mL, 1 and 4 hrs composite sample; for Relative abundance of metabolite of Compound 1, Mouse: mouse cryopreserved hepatocytes
Description: as §1, §2, §3, §4, §5

[5] = test system: mixed-gender cryopreserved human hepatocytes; assay: In vitro metabolism of Compound 1 in human cryopreserved hepatocytes; type: in vitro ADME; details: HPLC/UV/MS; for metabolite of Compound 1 observed in human hepatocyte incubations: 10 μM Compound 1, 7.5×10^5 cells/mL, 1 and 4 hrs composite sample; for Relative abundance of metabolite of Compound 1, Human: human cryopreserved hepatocytes
Description: as §1, §2, §3, §4, §5

[6] = Metabolites of Compound 1 in rat bile following a 1.0 mg/kg IV bolus dose (bile duct cannulated rat); type: in vivo; details: 1.0 mg/kg IV bolus dose of Compound 1, pooled bile 0-24 hrs, bile duct cannulated male rats
Description: (§6) Plasma and bile samples were obtained from a bile duct cannulated rat experiment (Study PK-0111) in which a 1.0 mg/kg IV bolus dose was administered to fed male rats (N=3). No control plasma was available from this experiment.
Bile samples (0-3, 3-7, and 7-24 hrs) from individual animals were pooled in proportion to the amount collect in each interval. Then 0.5 mL of each individual pool was combined to prepare a composite sample for analysis.
(§7) Pooled plasma and bile samples were extracted with ACN containing 0.1% formic acid, and after centrifugation at 1900×g, the supernatant was transferred to clean tubes and evaporated under N2 in a Turbovap set at 37° C. Residues were reconstituted in mobile phase (5:95 v:v ACN:0.1% aqueous formic acid) prior to analysis by HPLC/UV/MS^n.
as §3, §4, §5

[7] = Circulating metabolites of Compound 1 in rat plasma following a 1.0 mg/kg IV bolus dose; type: in vivo; details: 1.0 mg/kg IV bolus dose of Compound 1, pooled plasma 0.033-24 hrs, male rats
Description: as §6
Clin Pharmacol Ther 1981; 29(3):408-13]. The entire volume of each replicate Hamilton pool was combined to create a single pooled sample (576 μL) for analysis.
as §7, §3, §4, §5

[8] = test system: human co-cultured hepatocytes (Hepatopack); assay: In vitro metabolism of Compound 1 in human micropatterned co-cultured hepatocytes (Hepatopack); type: in vitro ADME; details: human co-cultured hepatocytes (Hepatopack); HPLC/UV/MS; also: key: ND Not detected; trace: Trace: observed by HPLC/MS measurements only; + Minor as assessed by HPLC/UV measurements; ++ moderate as assessed by HPLC/UV measurements; +++ major as assessed by HPLC/UV measurements; * m/z 593 and m/z 505 co-eluted in rabbit hepatocytes; ** m/z 591c and m/z 593 were merged in human hepatocytes and Hepatopack; *** m/z 607 and m/z 751b were merged in rabbit hepatocytes
Source text: Micro-patterned co-cultured (MPCC) hepatocyte 24-well plates containing human donors (16 wells each) were provided by Ascendance Biotechnology (formerly Hepregen Corp. (Medford, Mass.). [see Wang W W W, Khetani S R, Krzyzewski S, et al. Assessment of a Micropatterned Hepatocyte Coculture System to Generate Major Human Excretory and Circulating Drug Metabolites. Drug Metab Dispos 2010; 38(10):1900-51 The MPCCs were created at Ascendance Biotechnology and maintained in serum containing medium for 5-6 days to allow for stabilization of the co-cultures prior to shipment. A mixed-gender cryopreserved pool of 10 human donors (X008001-P; lot YFA) was used to seed the plates and was purchased from BioreclamationlVT (Westbury, N.Y.). MPCC hepatocytes are plated with fibroblasts in a 1:3 ratio with ˜25,000 hepatocytes/well in a 24-well plate. 24-Well MPCC plates were shipped to Pfizer, fresh medium (400 μL/well) was applied and cultures were kept at 37° C. with […] and 95% relative humidity for two days. Micropatterned co-cultures containing pooled hepatocytes were allowed 7 days to fully stabilize with respect to liver-specific functions. […] At respective time points (0, 2, and 7 days), the culture medium was removed and mixed with 4 volumes of ACN, then stored frozen at −40° C. until samples could be analyzed. Samples were subsequently processed by the addition of 2.5 mL of 1:1 ACN:MeOH containing 0.1% formic acid. After vortexing, the samples were centrifuged at 1900×g for 5 min, then the supernatant was transferred to 15 mL conical tubes and evaporated under N2 using a Turbovap set at 37° C. The residues were reconstituted in mobile phase (5:95 v:v ACN:0.1% aqueous formic acid) prior to analysis by HPLC/UV/MS^n.
as §3
UV absorbance was monitored with a photo-diode array detector from 220-450 nm. The mass spectrometer was operated in positive-ion mode with a HESI ion source at a potential of 3.0 kV, and capillary and source heater temperatures of 380 and 300° C., respectively. Sheath, auxiliary, and sweep gas flows were set to 45, 10, and 2 units, respectively. Full scan mass spectra were acquired over the range 120-1200 m/z at a resolving power of 30,000 (specified at m/z 400). […]

| SMILES | metabolite of Compound 1 observed in rat hepatocyte incubations [1] | metabolite of Compound 1 observed in rabbit hepatocyte incubations [2] | metabolite of Compound 1 observed in monkey hepatocyte incubations [3] | metabolite of Compound 1 observed in mouse hepatocyte incubations [4] | metabolite of Compound 1 observed in human hepatocyte incubations [5] | detected in rat bile [6] | detected in rat plasma [7] | Relative abundance of metabolite of Compound 1, Rat [1] | Relative abundance of metabolite of Compound 1, Hepatopack [8] | detected in rat bile ([6]; listed as m/z 331) | Relative abundance of metabolite of Compound 1, Rabbit [2] | Relative abundance of metabolite of Compound 1, Monkey [3] | detected in rat plasma ([7]; listed as m/z 331) | Relative abundance of metabolite of Compound 1, Mouse [4] | Relative abundance of metabolite of Compound 1, Human [5] |
| --- | --- | --- | --- | --- | --- | --- | --- | --- | --- | --- | --- | --- | --- | --- | --- |
| C[C@]1(c2ccc(Cl)cn2)Oc2cccc(C3CCN(Cc4nc5ccc(C(=O)O)cc5n4CC(O)CCO)CC3)c2O1 (stereo in doubt) [Metabolite 593] | observed | observed | observed | observed | observed | – | – | – | – | – | – | – | – | – | – |
| C[C@]1(c2ccc(Cl)cn2)Oc2cccc(C3CCN(Cc4nc5ccc(C(=O)O)cc5n4C[C@@H]4CCO4)CC3)c2O1 [Compound 1, 2-((4-((S)-2-(5-chloropyridin-2-yl)-2-methylbenzo[d][1,3]dioxol-4-yl)piperidin-1-yl)methyl)-1-(((S)-oxetan-2-yl)methyl)-1H-benzo[d]imidazole-6-carboxylic acid] | – | – | – | – | – | detected | detected | – | – | – | – | – | – | – | – |
| C[C@]1(c2ccc(Cl)cn2)Oc2cccc(C3CCNCC3)c2O1 [Metabolite 331] | observed | observed | observed | observed | observed | observed | observed | trace | trace | detected | trace | + | detected | + | + |
| O=C(O)c1ccc2nc(CN3CCC(c4cccc(O)c4O)CC3)n(C[C@@H]3CCO3)c2c1 [Metabolite 438, (S)-2-((4-(2,3-dihydroxyphenyl)piperidin-1-yl)methyl)-1-(oxetan-2-ylmethyl)-1H-benzo[d]imidazole-6-carboxylic acid] | observed as a trace metabolite | – | observed as a trace metabolite | – | observed as a trace metabolite | – | – | – | – | – | – | – | – | – | – |
| O=C(O)c1ccc2nc(CN3CCC(c4cccc(O)c4O)CC3)n(C[C@@H]3CCO3)c2c1 [Metabolite 438] | – | – | – | – | – | – | – | trace | – | – | – | trace | – | – | trace |
| C[C@]1(c2ccc(Cl)cn2)Oc2cccc(C3CCN(Cc4nc5ccc(C(=O)O)cc5[nH]4)CC3)c2O1 [Metabolite 505, (S)-2-((4-(2-(5-chloropyridin-2-yl)-2-methylbenzo[d][1,3]dioxol-4-yl)piperidin-1-yl)methyl)-1H-benzo[d]imidazole-6-carboxylic acid] | observed | observed | – | observed | – | – | – | – | – | – | – | – | – | – | – |
| C[C@]1(c2ccc(Cl)cn2)Oc2cccc(C3CCN(Cc4nc5ccc(C(=O)O)cc5[nH]4)CC3)c2O1 [Metabolite 505] | – | – | – | – | – | – | – | trace | – | – | – | – | – | trace | – |
| C[C@]1(c2ccc(Cl)cn2)Oc2cccc(-c3cc[n+](Cc4nc5ccc(C(=O)O)cc5n4C[C@@H]4CCO4)cc3)c2O1 [Metabolite 569] | observed | observed | observed | observed | observed | – | – | trace | + | – | + | trace | – | + | + |
| C[C@]1(c2ccc(Cl)cn2)Oc2cccc(C3CC[N+]([O-])(Cc4nc5ccc(C(=O)O)cc5n4C[C@@H]4CCO4)CC3)c2O1 (stereo partly shown) [Metabolite 591d] | observed | observed | observed | observed | observed | – | – | – | – | – | – | – | – | – | – |
| CC1(c2ccc(Cl)cn2)Oc2cccc(C3CCN(Cc4nc5ccc(C(=O)OC6OC(C(=O)O)C(O)C(O)C6O)cc5n4CC4CCO4)CC3)c2O1 (stereo not shown) [Metabolite 751b] | – | – | – | – | – | – | – | + | ++ | – | ++ | +++ | – | ++ | +++ |

Reference: patent US20220193063A1, “METABOLITES OF GLP1R AGONISTS” (Pfizer Inc., priority 2020, published 2022)
